One data set concerns SAR-CoV-2. The following applies: cited from earlier work.
The next data set has as its system SARS-CoV-2. Particulars: Pruijssers et al., 2020, cited from earlier work.
For data set [1] the following is noted: cited from earlier work.
A short description of data set [2]: Solubility in simulated lung fluid (SLF). It is filed as physicochemical. Particulars: for solubility in SLF: 25° C., 24 h. As to the method:
The composition and preparation of simulated lung fluid (SLF) were adapted from Hassoun's study (Hassoun et al., 2018). SLF contained dipalmitoylphosphotidylcholine (DPPC), cholesterol, albumin, transferrin, ascorbic acid and Hank's balanced salt solution (HBSS). The SLF was prepared by two steps including a preparation of liposomal dispersion and freeze drying as described in Hassoun et al. (Hassoun et al., 2018). In the first step, a liposomal dispersion was prepared by mixing 2.12 mL of 25 mg/mL DPPC and 5 μL of 200 mg/mL cholesterol in chloroform. Then, the solution was dried using an evaporator until the dry film was obtained. The thin film of lipid was dispersed by adding 8 mL of 57 mg/mL bovine serum albumin in water, 1 mL of 15 mg/mL transferrin in water, and 88.5 μL of 10 mM ascorbate solution. The mixture was sonicated until it fully dispersed. The dispersion was adjusted to 10 mL by adding 1M HBSS). The dispersion was frozen at −20° C. for 6 h, and primary dried in the lyophilizer at −40° C. for 30 h and ramp to 25° C. for 12 h and finally secondary dried at 25° C. for 20 h. The lyophilized SLF was stored at 2-8° C. and reconstituted with purified water upon solubility and dissolution testing.
The excess amount of powder was added in SLF until precipitation occurred. Then the samples were shaken on the orbital shaker at 250 rpm and 25° C. for 24 h. The samples were collected and centrifuged at 13,000 rpm for 15 min. The supernatants were collected and then diluted with DMSO/acetonitrile (10/90). The samples were centrifuged again at 13,000 rpm for 15 min to separate proteins in SLF. The supernatants were collected and analyzed by HPLC.

For data set [3] the following is noted: rats; cited from earlier work.

Values after ≈ are worked out from the molar mass of the structure shown. Like-named read-outs stand apart in the source and are kept apart here.

For the compound `N#C[C@@]1(c2ccc3c(N)ncnn23)O[C@H](CO)[C@@H](O)[C@H]1O` [GS-441524], the EC50 in the data set on SAR-CoV-2 (human airway epithelial (HAE), Agostini et al., 2018) is 0.05243 µg/mL; with SAR-CoV-2 (read-out: EC50) it was 180 nM; with SARS-CoV-2 (Calu3 2B4 cells, read-out: EC50) it was 620 nM; in the data set on SARS-CoV-2 (Calu-3 2B4 cells), 0.1806 µg/mL. Also, the half-life result in data set [1] (human, in vivo, iv) is “approximately 24.5 h”.
Turning to `CCC(CC)COC(=O)[C@H](C)N[P@](=O)(OC[C@H]1O[C@@](C#N)(c2ccc3c(N)ncnn23)[C@H](O)[C@@H]1O)Oc1ccccc1` [amorphous remdesivir, remdesivir], in data set [2], the “increase in solubility compared to crystalline neat remdesivir” value is 20 fold, the “solubility of amorphous versus crystalline remdesivir” value is given as “about 20 times” and the “solubility in SLF” value is 590 ± 10 µg/mL (≈ 979 µM).
`CCC(CC)COC(=O)[C@H](C)N[P@](=O)(OC[C@H]1O[C@@](C#N)(c2ccc3c(N)ncnn23)[C@H](O)[C@@H]1O)Oc1ccccc1` [crystalline remdesivir, remdesivir]: the “solubility in SLF” value in data set [2] was 30 ± 1 µg/mL (≈ 49.8 µM).
Turning to `CCC(CC)COC(=O)[C@H](C)N[P@](=O)(OC[C@H]1O[C@@](C#N)(c2ccc3c(N)ncnn23)[C@H](O)[C@@H]1O)Oc1ccccc1` [remdesivir], in data set [3], the “half-life of remdesivir in plasma” value is “less than 0.9 min”. Moreover, the half-life entry in data set [1] (humans, multiple IV administrations once a day) is given as “about 1 h”.

One may read the EC50 as the concentration needed to bring the measured effect to its halfway point.

The values are drawn from patent US20230263816A1, “PHARMACEUTICAL COMPOSITIONS FOR DELIVERY OF REMDESIVIR BY INHALATION” (priority 2020, published 2023).
